# Laboratory results reported in patent US9133207B2, “Tetrandrine derivatives with substituted 5-carbon, preparation method and use thereof” (Hangzhou Bensheng Pharmaceutical Co., Ltd., priority 2011, dated 2015).
# Tests used:
# [1] = test system: H9 (acute lymphoblastic leukemia, ALL); assay: Leukemia cell growth inhibition, MTT, 72 h (Example 5); assay type: cell-based, human; settings: Homo sapiens; 72 h, MTT
# In short: (§1)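 Seed 6000 leukemia cells per well in 1640 medium containing 10% FBS. Add test compounds at different concentrations, mix, incubate 72 hours at 37° C in 5% CO2. Determine viable cells by MTT.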
# [2] = test system: Jurkat (acute lymphoblastic leukemia, ALL); assay: as above; assay type: cell-based, human; settings: for IC50 / IC90: Homo sapiens, Jurkat, 72 h, MTT; for anti-Jurkat activity increase over tetrandrine: compared with tetrandrine
# In short: as §1
# [3] = test system: K562/adr (drug-resistant, chronic myeloid leukemia, CML); assay: as above; assay type: cell-based, human; settings: Homo sapiens, K562/Adr; 72 h, MTT
# In short: as §1
# [4] = test system: Kasumi-1 (acute myeloid leukemia M2 type, AML-M2); assay: as above; assay type: cell-based, human; settings: Homo sapiens, Kasumi 1
# In short: as §1
# [5] = test system: NB4 (acute promyelocytic leukemia, AML); assay: as above; assay type: cell-based, human; settings: Homo sapiens; 72 h, MTT
# In short: as §1
# [6] = test system: RPMI8226 (multiple myeloma); assay: Multiple myeloma cell growth inhibition, MTT, 72 h (Example 6); assay type: cell-based, human; settings: Homo sapiens, RPMI-8226; 72 h, MTT, RPMI8226
# In short: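 Viability was read by MTT after 72 h of compound exposure at 37 °C, 5% CO2. Each well held 6000 RPMI8226 cells in 1640 medium containing 10% fetal bovine serum, with derivatives added at various concentrations.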
# [7] = test system: CaES-17 (esophageal cancer cell); assay: Solid tumor cell growth inhibition, MTT, 72 h (Example 7); assay type: cell-based, human; settings: Homo sapiens, CaEs17; 72 h, MTT, CAES-17
# In short: (§2)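 MTT read-out of viable cells after 72 h compound treatment, reported as percent viability versus untreated control (100%). Cells seeded at 4000 per well, grown 24 h beforehand in 10% FBS DMEM high glucose, 37 °C, 5% CO2.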
# [8] = test system: Hep-2 (laryngeal carcinoma); assay: as above; assay type: cell-based, human; settings: Homo sapiens; 72 h, MTT, Hep 2
# In short: as §2
# MG63 (osteosarcoma) = assay: as above; assay type: cell-based, human; settings: Homo sapiens; 72 h, MTT, MG-63
# In short: as §2
# [9] = test system: PANC-1 (pancreatic cancer); assay: as above; assay type: cell-based, human; settings: Homo sapiens; 72 h, MTT, PANC-1
# In short: as §2
# PC-3 (prostate cancer) = assay: as above; assay type: cell-based, human; settings: Homo sapiens; 72 h, MTT, PC-3
# In short: as §2
# A549 (human lung cancer) = assay: as above; assay type: cell-based; settings: Homo sapiens; 72 h, MTT, A549
# In short: as §2
# [10] = test system: Becap37 (human breast cancer cell); assay: as above; assay type: cell-based; settings: Homo sapiens; 72 h, MTT, Becap-37
# In short: as §2
# [11] = test system: CNE (nasopharyngeal carcinoma cell); assay: as above; assay type: cell-based; settings: Homo sapiens
# In short: as §2
# [12] = test system: Hela (human cervical cancer cell); assay: as above; assay type: cell-based; settings: Homo sapiens; 72 h, MTT, Hela
# In short: as §2
# [13] = test system: Huh7 (human liver cancer cell); assay: as above; assay type: cell-based; settings: Homo sapiens; 72 h, MTT, Huh-7
# In short: as §2
# [14] = test system: MGC 803 (human gastric cancer cell); assay: as above; assay type: cell-based; settings: Homo sapiens
# In short: as §2
# [15] = test system: RKO (human colon adenocarcinoma cell); assay: as above; assay type: cell-based; settings: Homo sapiens; 72 h, MTT, RKO
# In short: as §2
# [16] = test system: SK-OV-3 (ovarian cancer cell); assay: as above; assay type: cell-based; settings: Homo sapiens
# In short: as §2
# [17] = test system: U87 MG (malignant glioma cell); assay: as above; assay type: cell-based; settings: Homo sapiens, U-87 MG
# In short: as §2
compound,measurement,setting,value
COc1ccc2cc1Oc1ccc(cc1)C[C@H]1c3cc(c(OC)cc3CCN1C)Oc1c(OC)c(OC)c(CN3CCCCC3)c3c1[C@H](C2)N(C)CC3 [BS-TE-355],IC50,[1],0.63 µg/mL
same,IC90,[1],1.96 µg/mL
same,IC50,[2],0.48 µg/mL
same,IC90,[2],4.52 µg/mL
same,anti-Jurkat activity increase over tetrandrine,[2],~4 fold
same,IC50,[3],0.44 µg/mL
same,IC90,[3],8.5 µg/mL
same,IC50,[4],0.46 µg/mL
same,IC90,[4],2.55 µg/mL
same,IC50,[5],0.4 µg/mL
same,IC90,[5],1.4 µg/mL
same,IC50,[6],0.04 µg/mL
same,IC90,[6],3.08 µg/mL
same,IC50,[7],1.42 µg/mL
same,IC90,[7],11 µg/mL
same,IC50,[8],3.22 µg/mL
same,IC90,[8],8.45 µg/mL
same,IC50,MG63 (osteosarcoma),0.77 µg/mL
same,IC90,MG63 (osteosarcoma),1.27 µg/mL
same,IC50,[9],2.27 µg/mL
same,IC90,[9],8.22 µg/mL
same,IC50,PC-3 (prostate cancer),1.83 µg/mL
same,IC90,PC-3 (prostate cancer),3.65 µg/mL
same,IC50,A549 (human lung cancer),3.4 µg/mL
same,IC90,A549 (human lung cancer),14.9 µg/mL
same,IC50,[10],0.76 µg/mL
same,IC90,[10],2.69 µg/mL
same,IC50,[11],1.17 µg/mL
same,IC90,[11],3.64 µg/mL
same,IC50,[12],2 µg/mL
same,IC90,[12],6.92 µg/mL
same,IC50,[13],1.28 µg/mL
same,IC90,[13],2.45 µg/mL
same,IC50,[14],0.92 µg/mL
same,IC90,[14],12 µg/mL
same,IC50,[15],0.25 µg/mL
same,IC90,[15],1.18 µg/mL
same,IC50,[16],3.5 µg/mL
same,IC90,[16],> 16 µg/mL
same,IC50,[17],0.37 µg/mL
same,IC90,[17],1.16 µg/mL
COc1ccc2cc1Oc1ccc(cc1)C[C@H]1c3cc(c(OC)cc3CCN1C)Oc1c(OC)c(OC)c(CN3CCCN(C)CC3)c3c1[C@H](C2)N(C)CC3 [BS-TE-356],IC50,[1],1.54 µg/mL
same,IC90,[1],2.21 µg/mL
same,IC50,[2],1.41 µg/mL
same,IC90,[2],5.41 µg/mL
same,IC50,[3],0.79 µg/mL
same,IC90,[3],2.4 µg/mL
same,IC50,[4],1.24 µg/mL
same,IC90,[4],3.2 µg/mL
same,IC50,[5],0.63 µg/mL
same,IC90,[5],2.17 µg/mL
same,IC50,[6],0.11 µg/mL
same,IC90,[6],2.43 µg/mL
same,IC50,[7],1 µg/mL
same,IC90,[7],9.26 µg/mL
same,IC50,[8],3.37 µg/mL
same,IC90,[8],7.54 µg/mL
same,IC50,MG63 (osteosarcoma),0.49 µg/mL
same,IC90,MG63 (osteosarcoma),0.62 µg/mL
same,IC50,[9],1.62 µg/mL
same,IC90,[9],4.58 µg/mL
same,IC50,PC-3 (prostate cancer),3.4 µg/mL
same,IC90,PC-3 (prostate cancer),5 µg/mL
same,IC50,A549 (human lung cancer),3.5 µg/mL
same,IC90,A549 (human lung cancer),10.5 µg/mL
same,IC50,[10],1.63 µg/mL
same,IC90,[10],3 µg/mL
same,IC50,[11],0.94 µg/mL
same,IC90,[11],2.59 µg/mL
same,IC50,[12],1.55 µg/mL
same,IC90,[12],5 µg/mL
same,IC50,[13],1.3 µg/mL
same,IC90,[13],1.67 µg/mL
same,IC50,[14],1.26 µg/mL
same,IC90,[14],1.88 µg/mL
same,IC50,[15],0.51 µg/mL
same,IC90,[15],0.91 µg/mL
same,IC50,[16],2.19 µg/mL
same,IC90,[16],4 µg/mL
same,IC50,[17],1.11 µg/mL
same,IC90,[17],2.02 µg/mL
COc1ccc2cc1Oc1ccc(cc1)C[C@H]1c3cc(c(OC)cc3CCN1C)Oc1c(OC)c(OC)c(CNCc3ccc(C)o3)c3c1[C@H](C2)N(C)CC3 [BS-TE-358],IC50,[1],1.45 µg/mL
same,IC90,[1],2.4 µg/mL
same,IC50,[2],0.55 µg/mL
same,IC90,[2],4 µg/mL
same,anti-Jurkat activity increase over tetrandrine,[2],~4 fold
same,IC50,[3],0.63 µg/mL
same,IC90,[3],3.15 µg/mL
same,IC50,[4],1.1 µg/mL
same,IC90,[4],3.71 µg/mL
same,IC50,[5],0.8 µg/mL
same,IC90,[5],2 µg/mL
same,IC50,[6],0.08 µg/mL
same,IC90,[6],3.69 µg/mL
same,IC50,[7],2.69 µg/mL
same,IC90,[7],10.1 µg/mL
same,IC50,[8],3.37 µg/mL
same,IC90,[8],7.54 µg/mL
same,IC50,MG63 (osteosarcoma),1.5 µg/mL
same,IC90,MG63 (osteosarcoma),2.8 µg/mL
same,IC50,[9],2.66 µg/mL
same,IC90,[9],9.71 µg/mL
same,IC50,PC-3 (prostate cancer),3.7 µg/mL
same,IC90,PC-3 (prostate cancer),5.9 µg/mL
same,IC50,A549 (human lung cancer),4 µg/mL
same,IC90,A549 (human lung cancer),16 µg/mL
same,IC50,[10],1.96 µg/mL
same,IC90,[10],4.5 µg/mL
same,IC50,[11],2.26 µg/mL
same,IC90,[11],4.12 µg/mL
same,IC50,[12],2.12 µg/mL
same,IC90,[12],3.97 µg/mL
same,IC50,[13],1.35 µg/mL
same,IC90,[13],1.92 µg/mL
same,IC50,[14],1.39 µg/mL
same,IC90,[14],7.08 µg/mL
same,IC50,[15],0.6 µg/mL
same,IC90,[15],1.67 µg/mL
same,IC50,[16],4 µg/mL
same,IC90,[16],> 16 µg/mL
same,IC50,[17],0.65 µg/mL
same,IC90,[17],1.99 µg/mL
